SMILES strings stand for the structures. Values joined by “and” are separate entries in the source; they are usually repeats but may differ in a detail not shown here. Identical values can stand only once.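 Where inhibition never reached the appropriate level, the endpoint shown equals the highest concentration tested. Otherwise, values were interpolated linearly from a five-concentration, 48-hour dose response in 96-well plates. GI50: concentration for 50% inhibition of growth. TGI: concentration producing complete growth inhibition.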

Test systems include SNB-75 CNS; SF-268 CNS; SF-539 CNS; UACC-257 melanoma; NCI-H460 lung; SF-295 CNS; SK-MEL-2 melanoma; BT-549 breast; PC-3 prostate; T-47D breast.
What all share (experiment): growth of human tumour cells (NCI), 48 h

Take `CC(C)(C)c1cc(C(=O)O)c(C(c2ccccc2)c2ccccc2C(=O)O)c(C(=O)O)c1` (stereo unspecified): the TGI in the test on SNB-75 CNS is 42.2 µM; in the test with SF-268 CNS, more than 100 µM; in the test on SF-539 CNS, more than 100 µM; in the test on UACC-257 melanoma, more than 100 µM; with NCI-H460 lung, more than 100 µM; with SF-295 CNS, more than 100 µM. Besides, the TGI with SK-MEL-2 melanoma was more than 100 µM.
Turning to `COC(=O)Cc1cc(=O)oc2c1C(=O)CCC2`, the TGI with SNB-75 CNS, in the test with SF-268 CNS, with SF-539 CNS, with UACC-257 melanoma, in the test on NCI-H460 lung and in the test with SF-295 CNS was more than 100 µM throughout. The compound further gave a TGI in the test on SK-MEL-2 melanoma of more than 100 µM.
With `BrC(Br)([P+](c1ccccc1)(c1ccccc1)c1ccccc1)[P+](c1ccccc1)(c1ccccc1)c1ccccc1`, the TGI was 53.3 µM with SNB-75 CNS; more than 100 µM in the test with SF-268 CNS; 27.8 µM in the test with SF-539 CNS; 50.5 µM in the test on UACC-257 melanoma; more than 100 µM with NCI-H460 lung; more than 100 µM in the test with SF-295 CNS. In the test with SK-MEL-2 melanoma, the TGI was found to be 38.9 µM.
On to `c1cc2ccc1C1NCCCN1CCN1CCCNC1c1ccc(cc1)C1NCCCN1CCN1CCCNC21` (stereo unspecified), for which the TGI with SNB-75 CNS, in the test with SF-268 CNS, in the test with SF-539 CNS, in the test on UACC-257 melanoma, in the test on NCI-H460 lung and in the test on SF-295 CNS was more than 100 µM each time. The TGI in the test on SK-MEL-2 melanoma is more than 100 µM.
`O=C(NOC(=O)c1ccc([N+](=O)[O-])cc1)c1ccc(Cl)cc1`: the TGI in the test on SNB-75 CNS was 54.6 µM; with SF-268 CNS it was more than 100 µM; in the test on SF-539 CNS, more than 100 µM; in the test on UACC-257 melanoma, more than 100 µM; in the test on NCI-H460 lung, more than 100 µM; in the test with SF-295 CNS, more than 100 µM. Moreover, in the test with SK-MEL-2 melanoma, the TGI was more than 100 µM.
With `CC12O[Te]34OC1(C)C(C)(O3)C2(C)O4`, the TGI in the test with SNB-75 CNS was more than 8.75 µM; with SF-268 CNS, 23.9 µM; in the test on SF-539 CNS, 28.2 µM; in the test on UACC-257 melanoma it was 33.6 µM; with NCI-H460 lung it was 61.3 µM; with SF-295 CNS it was 18.3 µM. The compound also returned a TGI in the test on SK-MEL-2 melanoma of 29.8 µM.
Take `CN1C(=O)CC2(C)c3cc(C=O)ccc3N(C)C12` (stereo unspecified): the TGI in the test with SNB-75 CNS, with SF-268 CNS, in the test with SF-539 CNS, in the test with UACC-257 melanoma, with NCI-H460 lung and with SF-295 CNS was more than 100 µM throughout. This compound had a TGI in the test with SK-MEL-2 melanoma of more than 100 µM.
In the case of `Cc1cc(S(N)(=O)=O)c(S/C(=N\NS(=O)(=O)c2ccccc2)c2ccc(Cl)c(Cl)c2)cc1Cl`, the GI50 in the test with BT-549 breast is 38.8 µM; in the test on SF-268 CNS, 33.8 µM; with SF-539 CNS, 19.3 µM; in the test on UACC-257 melanoma, 40.3 µM; in the test on NCI-H460 lung it was 29.5 µM; in the test with SF-295 CNS, 36.4 µM. Also, the GI50 in the test on PC-3 prostate is 47.4 µM; with SK-MEL-2 melanoma, more than 100 µM. Also, the TGI is more than 100 µM with BT-549 breast; more than 100 µM in the test with SF-268 CNS; 64.3 µM in the test on SF-539 CNS; more than 100 µM with UACC-257 melanoma; more than 100 µM in the test on NCI-H460 lung; more than 100 µM with SF-295 CNS. Moreover, the TGI in the test with PC-3 prostate and in the test with SK-MEL-2 melanoma was more than 100 µM throughout.
As to `C=C1c2ccccc2N(S(=O)(=O)c2ccc(C)cc2)C12CCCCC2`, the TGI with SNB-75 CNS, with SF-268 CNS, with SF-539 CNS, in the test on UACC-257 melanoma, in the test with NCI-H460 lung and in the test with SF-295 CNS was more than 100 µM in each case. Besides, the TGI in the test on SK-MEL-2 melanoma was more than 100 µM.
Consider `O=C1OC(c2ccc(Cl)c3ccccc23)c2ccccc21` (stereo unspecified), for which the TGI in the test with SNB-75 CNS was 51.1 µM; in the test on SF-268 CNS it was more than 100 µM; in the test with SF-539 CNS, more than 100 µM; in the test with UACC-257 melanoma it was more than 100 µM; with NCI-H460 lung, more than 100 µM; in the test on SF-295 CNS, more than 100 µM. The compound further gave a TGI in the test on SK-MEL-2 melanoma of more than 100 µM.
Take `COc1cc(-c2nn3c(=O)n(-c4ccc(Cl)cc4)c(=O)nc3s2)cc(OC)c1OC`: the GI50 is 17.2 µM in the test with SNB-75 CNS; 33.1 µM with SF-268 CNS; 32.9 µM with SF-539 CNS; more than 50 µM in the test with NCI-H460 lung; 18.2 µM in the test with SF-295 CNS; more than 50 µM in the test on SK-MEL-2 melanoma. Moreover, the TGI is 43.1 µM and 21.1 µM in the test with SNB-75 CNS; more than 100 µM in the test with SF-268 CNS; 50 µM and 45.6 µM with SF-539 CNS; more than 100 µM in the test with UACC-257 melanoma; more than 100 µM with NCI-H460 lung; > 50 µM and 90.2 µM with SF-295 CNS. In the test on SK-MEL-2 melanoma, this compound had a TGI of more than 100 µM.
For `C(/C=C/N1CCCC1)=C\c1nc(N2CCCC2)c2ccccc2n1`, the TGI in the test with SNB-75 CNS is 31.6 µM; in the test on SF-268 CNS, 41.7 µM; in the test with SF-539 CNS, 32.8 µM; with UACC-257 melanoma, more than 100 µM; in the test with NCI-H460 lung, 33.6 µM; with SF-295 CNS it was 35.4 µM. The compound also showed a TGI with SK-MEL-2 melanoma of 39.1 µM.
On to `COc1cc2c(c(OC)c1OC)-c1ccc(SC)c(=O)cc1[C@@H](NC(=O)c1ccc(F)cc1)CC2`, for which the GI50 in the test with SNB-75 CNS, in the test with SF-268 CNS, in the test on SF-539 CNS and in the test with SF-295 CNS was less than 0.01 µM in each case. Besides, the TGI with SNB-75 CNS was less than 0.01 µM; in the test with SF-268 CNS it was 16.8 µM; with SF-539 CNS, 0.0696 µM and < 0.01 µM; in the test with UACC-257 melanoma it was more than 100 µM.
For `O=C1Nc2ccc(Br)cc2C1=Nc1ccc(Cl)cc1`, the TGI with SF-268 CNS is 55.8 µM; in the test with T-47D breast, more than 100 µM; with SF-539 CNS, 19.4 µM; with UACC-257 melanoma, 79.1 µM; in the test on NCI-H460 lung it was more than 100 µM; in the test on SF-295 CNS, 89.2 µM. Further, the TGI in the test on PC-3 prostate is more than 100 µM.
For the compound `CCC1(Cl)C(=O)NC(=O)N(C2CC(O)C(CO)O2)C1N=[N+]=[N-]` (stereo unspecified), the TGI in the test on SNB-75 CNS, in the test with SF-268 CNS, with SF-539 CNS, in the test with UACC-257 melanoma, with NCI-H460 lung and in the test on SF-295 CNS was more than 100 µM throughout. The compound further returned a TGI with SK-MEL-2 melanoma of more than 100 µM.

The record behind these values is PubChem BioAssay (NCI).
